{
  "source": "paper PMC11251039",
  "about": "“Harnessing cholesterol uptake of malaria parasites for therapeutic applications” (EMBO Molecular Medicine, 2024)",
  "key": {"[1]": {"tested_on": "human foreskin fibroblasts (HFF)", "experiment": "Human foreskin fibroblast growth inhibition assay (SYBR Safe)", "assay_type": "cell-based", "details": "72 h", "method": "HFF cell growth inhibition assays commenced by adding 5000 cells to each well of a 96-well plate. 10 µg/mL cycloheximide was used as a no-growth control. DNA replication (indicating growth) was measured at the specified time using SYBR Safe DNA Gel Stain (Invitrogen 33102) and a fluorescence microplate reader. […]\nHuman Foreskin Fibroblast Growth Inhibition Assays:\nThe HFF cell line was maintained under routine culture conditions in DMEM containing 3.7 g/L NaHCO3 supplemented with 10% v/v newborn calf serum (NCS), 50 units/mL penicillin, 50 μg/mL streptomycin, 10 μg/mL gentamicin, 0.25 μg/mL amphotericin B, and 0.2 mM L-glutamine at 37 °C in a humidified 5% CO2 incubator. […]\nHFF cells were detached from a flask using 0.25% Trypsin with 0.2 g/L EDTA (Sigma T4049) and washed with culture media. Cells were incubated with a serial dilution of each compound, or media/DMSO alone. Cycloheximide at 10 µg/mL was used as a positive control to determine background fluorescence. Approximately 5 000 cells were seeded in each well. Plates were incubated at 37 °C for 72 hours (until reaching confluency) and the media was removed. Plates were transferred to a -18 °C freezer. Plates were thawed and SYBR Safe DNA Gel Stain (final concentration 1/10,000) diluted in lysis buffer (as above) was added. Fluorescence was read at 490 nm excitation/ 520 nm emission on a FLUOstar Optima fluorescence plate reader. […]"}, "P. berghei liver stages": {"tested_on": "P. berghei liver stages", "experiment": "Plasmodium berghei liver stage growth inhibition assay (luminescence, in Huh7 cells)", "details": "for P. berghei liver stage growth, dose-response data points (Figure 3A): replicate data points; for P. berghei liver stage growth, dose-response data points (Figure 3A) / Figure 3E dose-response value (replicates): listed as HJB8a53", "experimental": "Growth inhibition or cell viability were assessed by incubation with a serial dilution of test compounds, solvent controls (DMSO, ethanol, ethyl acetate), or culture media alone in 96-well plates, with detection of fluorescence, luminescence, or absorbance in microplate readers after 24–96 h unless otherwise specified.\nHuh7 cells were seeded at a density of 10,000 cells per well of a 96-well plate, or 20,000 cells per collagen-coated coverslip. After 24 h, test compounds were added the wells were inoculated with P. berghei liver stage sporozoites dissected from infected A. stephensi salivary glands with 5000–10,000 sporozoites per well or 10,000–20,000 sporozoites per coverslip. Uninfected wells served as a control for background luminescence. Luminescence signal was measured 48 h post-invasion by addition of 1:1 ONE-Glo^TM substrate (Promega) with a luminescence microplate reader. Coverslips were fixed, stained, and imaged, with all parasites on each coverslip imaged and delineated as described (Petersen et al, [2017]) using Fiji ImageJ (Schindelin et al, [2012]). Data are presented as a percentage of the size or parasite number of the solvent control to normalize for differences between experiments.\nGrowth inhibition data were normalised by subtracting background fluorescence, luminescence, absorbance, or percentage of cells from a no-growth or no-viability control (high drug concentration, no-parasite control, or time = 0 measurement as specified), and expressed as a percentage of the growth or cell percentage in the negative control (culture media alone or solvent control) at the indicated timepoint (or to the highest measurement reached during the assay for Fig. EV3).\nPlasmodium berghei ANKA Bergreen (22) or GFP-Luc (RMgm-29) (23), respectively\nexpressing green fluorescent protein (GFP) or a GFP-Luciferase fusion protein, were\nmaintained under routine conditions in SWR/J Mus musculus mice and Anopheles stephensi\nGrowth inhibition of P. berghei liver-stages was investigated after infection of human\nhepatoma cells (Huh7) and subsequent growth for 48 hours at 37° C, 5% CO2 and 80%\nhumidity. The day prior to infection, 10,000 Huh7 cells were seeded in dark-sided 96-well\nmicroplates (Greiner Bio One). On the day of infection, compounds or solvent controls\n(DMSO) were serially diluted in culture media and 5,000 – 10,000 Bergreen or GFP-Luc\nsporozoites were added per well following dissection from infected A. stephensi salivary\nglands. Uninfected wells served as control for background luminescence. To promote invasion,\nthe plates were centrifuged at 1,550 g for 5 minutes. After 60 minutes, the media was\ncompletely replaced with fresh, prewarmed media with the matching drug concentrations.\nMedia was partially replaced with new drug dilutions over the following two days. 48 hours\npost-infection, luminescence signal was measured by addition of 1:1 ONE-GloTM substrate\n(Promega) to the wells, followed by detection at 300 – 700 nm using a Synergy HTX plate"}, "[2]": {"tested_on": "human embryonic kidney cells (HEK293)", "experiment": "Human embryonic kidney cell viability assay (MTT)", "assay_type": "cell-based", "details": "Homo sapiens; 96 h, HEK293; read-out: IC50, human embryonic kidney cell inhibition (viability)", "method": "HEK293 cell viability assays commenced with 5000 cells per well. 10 µg/mL cycloheximide was used as a no-growth control. Metabolic capacity (indicating viability) was measured in an absorbance microplate reader after incubation with 0.45 mg/mL methylthiazolyldiphenyl-tetrazolium bromide (MTT; Sigma M2128) for 2 h followed by crystal solubilisation in SDS. […]\nHuman Embryonic Kidney Cell Viability Assays:\nHuman Embryonic Kidney Cell (HEK293) culture:\nThe HEK293 cell line was maintained under routine culture conditions in DMEM containing 3.7 g/L NaHCO3 supplemented with 10% FBS, 200 μM glutamine, 100 units/mL penicillin, and 100 μg/mL streptomycin at 37 °C in a humidified 5% CO2 incubator.\nCells were detached from a flask using 0.25% Trypsin with 0.2 g/L EDTA (Sigma T4049) and washed with culture media containing no phenol red. Cells were incubated with a serial dilution of each compound, or media/DMSO alone. The protein synthesis inhibitor cycloheximide (Sigma 01810) at 10 µg/mL was used as a positive control to determine background absorbance. 5,000 cells were seeded in each well. After 96 hours, 0.45 mg/mL methylthiazolyldiphenyl-tetrazolium bromide (MTT; Sigma M2128) was added and incubated for a further two hours, before mixing 1.1:1 with 10% w/v sodium dodecyl sulfate (SDS) to solubilise crystals and freezing the plate at -18 °C to stop the assay. […]"}, "[3]": {"tested_on": "human hepatoma cells (Huh7)", "experiment": "Human hepatoma viability assay (CellTiter-Blue)", "assay_type": "cell-based", "details": "for Huh7 viability, dose-response data points (Figure 3F): replicate data points", "method": "Huh7 hepatoma viability assays were conducted in the same manner as the P. berghei assays, with metabolic capacity (indicating viability) measured with a fluorescence microplate reader after incubation with CellTiter-Blue® (Promega) for 3 h.\nAppendix Fraser/Curtis et al. […]\nHuman Hepatoma Viability Assays:\nThe Huh7 hepatoma cell line (ATCC) was maintained under routine culture conditions in Dulbecco's Modified Eagle Medium (DMEM) containing 3.7 g/L NaHCO3 supplemented with 10% foetal bovine serum (FBS), 100 units/mL penicillin, and 100 μg/mL streptomycin at 37 °C in a humidified 5% CO2 incubator.\nViability assays were performed in parallel to the P. berghei growth inhibition. 10,000 Huh7 cells were seeded in 96-well and dark-sided microplates (Greiner Bio One) and cultured at 37°C, 5% CO2 and 80% humidity. The next day, the media was replaced with compounds or solvent controls (DMSO) serially diluted in culture media. Media was partially replaced with new drug dilutions over the following two days. After 48 hours, CellTiter-Blue® (Promega) was added according to the manufacturer’s instructions and incubated for 3 hours. Fluorescence intensity was measured with 530/25 ex and 590/20 em in a Synergy HTX plate reader (Agilent)."}},
  "note": "Several values for one entry are separate records, joined by “and”; a condition that tells them apart may be missing. Identical values can stand only once.",
  "data": [
    {"smiles": "CC(C)OC(=O)CCC(=O)O[C@H]1CC[C@H]2[C@@H]3CC=C4C[C@@H](O)CC[C@]4(C)[C@H]3CC[C@]12C", "note": "[C-17-link]", "values": [
      {"measurement": "Inhibition of fibroblast growth", "setting": "[1]; HFF", "result": "no notable inhibition"},
      {"measurement": "IC50", "setting": "[1]; Homo sapiens, Fibroblast, read-out: IC50, human fibroblast growth inhibition", "result": "> 75", "unit": "µM"},
      {"measurement": "P. berghei liver stage growth, dose-response data points (Figure 3A)", "setting": "P. berghei liver stages; 0.015241580 uM", "result": "96.98 and 119.7 and 83.36 and 88.47 and 108.4 and 103.1 and 97.22 and 85.28 and 117.5"},
      {"measurement": "P. berghei liver stage growth, dose-response data points (Figure 3A)", "setting": "P. berghei liver stages; 0.045724740 uM", "result": "121.9 and 106 and 104.9 and 85.8 and 115.6 and 102.5 and 72.1 and 100.2 and 87.82"},
      {"measurement": "P. berghei liver stage growth, dose-response data points (Figure 3A)", "setting": "P. berghei liver stages; 0.137174210 uM", "result": "107.2 and 102.6 and 90.17 and 92.54 and 104.7 and 117.6 and 63.06 and 70.96 and 103.2"},
      {"measurement": "Figure 3E dose-response value (replicates)", "setting": "P. berghei liver stages; 0.292968750 uM", "result": "91.07 and 89.1 and 95.27 and 90.14"},
      {"measurement": "P. berghei liver stage growth, dose-response data points (Figure 3A)", "setting": "P. berghei liver stages; 0.411522630 uM", "result": "124.2 and 100.4 and 115.1 and 111.4 and 113.3 and 113.5 and 80.27 and 84.75 and 95.46"},
      {"measurement": "Figure 3E dose-response value (replicates)", "setting": "P. berghei liver stages; 0.585937500 uM", "result": "99.86 and 89.88 and 84.85 and 85.63 and 89.93 and 92.67 and 90.44 and 102.5 and 92 and 98.72 and 111.5 and 102.9"},
      {"measurement": "Figure 3E dose-response value (replicates)", "setting": "P. berghei liver stages; 1.171875000 uM", "result": "96.5 and 101.8 and 91.15 and 89.59 and 89.72 and 89.39 and 88.5 and 90.85 and 89.8 and 102.1 and 102.3 and 93.29"},
      {"measurement": "P. berghei liver stage growth, dose-response data points (Figure 3A)", "setting": "P. berghei liver stages; 1.234567900 uM", "result": "118.5 and 135.5 and 116.3 and 100.4 and 96.61 and 100.7 and 64.72 and 81.15 and 106.8"},
      {"measurement": "Figure 3E dose-response value (replicates)", "setting": "P. berghei liver stages; 2.343750000 uM", "result": "99.05 and 88.35 and 98.38 and 79.46 and 78.82 and 91.42 and 85.51 and 85.36 and 86.3 and 87.79 and 95.63 and 94.28"},
      {"measurement": "P. berghei liver stage growth, dose-response data points (Figure 3A)", "setting": "P. berghei liver stages; 3.703703700 uM", "result": "114 and 106 (2×) and 125.3 and 90.63 and 118.1 and 93.53 and 101.3 and 118.6"},
      {"measurement": "Figure 3E dose-response value (replicates)", "setting": "P. berghei liver stages; 4.687500000 uM", "result": "81 and 89.1 and 99.07 and 91.89 and 81.35 and 88.41 and 75.07 and 84.23 and 79.29 and 90.54 and 102.2 and 92.05"},
      {"measurement": "Figure 3E dose-response value (replicates)", "setting": "P. berghei liver stages; 9.375000000 uM", "result": "89.91 and 74.54 and 79.38 and 86.26 and 88.67 and 93.48 and 71.57 and 72.81 and 73.33 and 83.01 and 90.9 and 81.08"},
      {"measurement": "P. berghei liver stage growth, dose-response data points (Figure 3A)", "setting": "P. berghei liver stages; 11.111111100 uM", "result": "92.44 and 108.3 and 77.69 and 72.06 and 110.1 and 86.05 and 62.44 and 84.4 and 99.5"},
      {"measurement": "Figure 3E dose-response value (replicates)", "setting": "P. berghei liver stages; 18.750000000 uM", "result": "68.62 and 75.11 and 71.21 and 83.74 and 80.37 and 86.75 and 49.64 and 47.74 and 45.02 and 68.49 and 77.9 and 71.84"},
      {"measurement": "P. berghei liver stage growth, dose-response data points (Figure 3A)", "setting": "P. berghei liver stages; 33.333333300 uM", "result": "25.52 and 39.13 and 33.46 and 43.83 and 48.03 and 60.49 and 20.73 and 60.95 and 57.96"},
      {"measurement": "Figure 3E dose-response value (replicates)", "setting": "P. berghei liver stages; 37.500000000 uM", "result": "25.13 and 30.9 and 15.88 and 48.26 and 43.84 and 49.75 and 11.26 and 13.01 and 10.8 and 38.05 and 39.89 and 41.67"},
      {"measurement": "Figure 3E dose-response value (replicates)", "setting": "P. berghei liver stages; 75.000000000 uM", "result": "2.196 and 1.744 and 3.137 and 1.33 and 2.981 and 3.396 and -0.3545 and -0.4946 and 0.272 and 5.931 and 5.012 and 6.082"},
      {"measurement": "P. berghei liver stage growth, dose-response data points (Figure 3A)", "setting": "P. berghei liver stages; 100.000000000 uM", "result": "-0.5671 and 0.5671 and -2.836 and -0.2967 and -0.1696 and 0.5935 and 0.3513 and 0.08782 and 0.4391"},
      {"measurement": "IC50", "setting": "P. berghei liver stages; Plasmodium berghei, Huh-7, 48 h, read-out: IC50, P. berghei liver stage growth inhibition", "result": 29.2, "unit": "µM"},
      {"measurement": "IC50", "setting": "[2]", "result": 43.6, "unit": "µM"},
      {"measurement": "Huh7 viability, dose-response data points (Figure 3F)", "setting": "[3]; 0.015241580 uM, listed as HJB8a53, 0.0152416 µM", "result": "105.5 and 101.4 and 96.09 and 69.59 and 87 and 84.06 and 99.27 and 98.63 and 104.2"},
      {"measurement": "Huh7 viability, dose-response data points (Figure 3F)", "setting": "[3]; 0.045724740 uM, listed as HJB8a53, 0.0457247 µM", "result": "109.3 and 93.77 and 96.82 and 77.36 and 91.83 and 83.31 and 95.97 and 106.5 and 102.9"},
      {"measurement": "Huh7 viability, dose-response data points (Figure 3F)", "setting": "[3]; 0.137174210 uM, listed as HJB8a53, 0.137174 µM", "result": "96.08 and 92.35 and 97.06 and 75.41 and 90.39 and 89.79 and 95.73 and 112.9 and 104.7"},
      {"measurement": "Huh7 viability, dose-response data points (Figure 3F)", "setting": "[3]; 0.411522630 uM, listed as HJB8a53, 0.411523 µM", "result": "96.93 and 97.72 and 96.92 and 63.65 and 105.3 and 104.5 and 106.5 and 105.9 and 105.2"},
      {"measurement": "Huh7 viability, dose-response data points (Figure 3F)", "setting": "[3]; 1.234567900 uM, listed as HJB8a53, 1.23457 µM", "result": "100.4 and 99.21 and 88.68 and 67.97 and 84.85 and 96.13 and 101.8 and 95.29 and 104.3"},
      {"measurement": "Huh7 viability, dose-response data points (Figure 3F)", "setting": "[3]; 3.703703700 uM, listed as HJB8a53, 3.7037 µM", "result": "100.3 and 96.61 and 91.24 and 63.53 and 95.92 and 87.81 and 99.75 and 109.9 and 102.3"},
      {"measurement": "Huh7 viability, dose-response data points (Figure 3F)", "setting": "[3]; 11.111111100 uM, listed as HJB8a53, 11.1111 µM", "result": "99.33 and 105.1 and 91.64 and 77.62 and 94.71 and 84.32 and 94.43 and 111.6 and 102.6"},
      {"measurement": "Huh7 viability, dose-response data points (Figure 3F)", "setting": "[3]; 33.333333300 uM, listed as HJB8a53, 33.3333 µM", "result": "96.9 and 100.5 and 93.64 and 75.36 and 80.99 and 87.75 and 88.68 and 89.18 and 95.7"},
      {"measurement": "Huh7 viability, dose-response data points (Figure 3F)", "setting": "[3]; 100.000000000 uM, listed as HJB8a53, 100 µM", "result": "79.4 and 72.92 and 76.08 and 55.81 and 65.46 and 66.75 and 56.01 and 61.1 and 53.13"},
      {"measurement": "Cytotoxicity to human hepatoma cells", "setting": "[3]; 48 h, up to 100 µM", "result": "only modest cytotoxicity at high concentrations (>30 µM)"},
      {"measurement": "IC50", "setting": "[3]; Homo sapiens, Huh-7, 48 h, read-out: IC50, human hepatoma inhibition (viability)", "result": "> 100", "unit": "µM"}
    ]}
  ]
}
